{"source": "patent US20210269504A1", "about": "“PROTEIN-BASED MICELLES FOR THE DELIVERY OF HYDROPHOBIC ACTIVE COMPOUNDS” (priority 2018, published 2021)", "assay": "Loading of 2Yx2A micelles with pyraclostrobin (A280 and HPLC quantification)", "format": "physicochemical", "description": "Pyraclostrobin is a highly water-insoluble organic compound that is also a potent fungicide. […] To determine if pyraclostrobin could be taken up into 2Yx2A micelles, pyraclostrobin was added until it saturated a solution of 100 μL of 11 μM (A280: 0.361) 2Yx2A, evidenced by yellow particulates. The solution was then centrifuged and the supernatant was removed and then placed in a fresh tube and centrifuged again. Supernatant removal and centrifugation were repeated 3 times to remove any insoluble pyraclostrobin that has not partitioned into the micelle interior. The solution was then measured with a nanodrop to determine its absorbance at 280 nm resulting in an A280 of 0.502 (+0.141 mAU). Given the pyrene extinction coefficient of 24,000 at A275, this increase in absorbance corresponds to the presence of 5.8 μM pyrene. Similarly, the same sample can be analyzed for pyraclostrobin content via HPLC using a calibration curved developed using known pyrene concentrations in acetonitrile (FIG. 18A). For HPLC analysis the protein-pyraclostrobin solution is diluted to ½ of its volume by pyrene to break apart the micelles. Then a known volume is injected onto the HPLC (FIG. 18B). Based on the area of the pyrene peak and volume injected the number of moles and thus the concentration of pyraclostrobin can be determined. Using this method, 7.37 μM pyraclostrobin is encapsulated in 11 μM of protein.\nInstead of directly adding pyraclostrobin to a solution of 2Yx2A micelles an alternative method was used to achieve higher loading efficiency. This method involved the co-resuspension of lyophilized protein and pyraclostrobin in THF which is then slowly diluted with buffer. The solution was then centrifuged and the supernatant was removed and then placed in a fresh tube and centrifuged again. Supernatant removal and centrifugation were repeated 3 times to remove any insoluble pyraclostrobin that has not partitioned into the micelle interior. The sample was then lyophilized to remove all solvent and then resuspended in milliQ water. Although no visible precipitation was observed, the sample was centrifuged to remove any unincorporated pyraclostrobin. For HPLC analysis the protein-pyraclostrobin solution is diluted to ½ of its volume by pyrene to break apart the micelles. Then a known volume is injected onto the HPLC. Based on the area of the pyrene peak and volume injected the number of moles and thus the concentration of pyraclostrobin can be determined.", "data": [{"compound": "COC(=O)N(OC)c1ccccc1COc1ccn(-c2ccc(Cl)cc2)n1", "note": "[pyraclostrobin]", "values": [{"measurement": "Concentration encapsulated in micelles (HPLC)", "setting": "direct addition to 11 μM 2Yx2A", "result": 7.37, "unit": "µM"}, {"measurement": "Amount injected on the HPLC", "setting": "resuspended in water, without 2Yx2A", "result": 0.03, "unit": "nmol"}, {"measurement": "Amount injected on the HPLC", "setting": "resuspended with 2Yx2A (THF co-resuspension, 100 mM PB pH 5.7)", "result": 0.63, "unit": "nmol"}]}, {"compound": "c1cc2ccc3cccc4ccc(c1)c2c34", "note": "[pyrene]", "values": [{"measurement": "Concentration present from increase in A280", "setting": "direct addition to 11 μM 2Yx2A, +0.141 absorbance, extinction coefficient 24,000", "result": 5.8, "unit": "µM"}]}]}
